From patent publication US20160360749A1, “METHOD FOR […] […]” (ExxonMobil Research and Engineering Company, priority 2015, published 2016)

Key:
[1] = test system: Desulfovibrio vulgaris Hildenborough (DvH); experiment: Carbon steel coupon weight loss analysis in DvH cultures; format: cell-based
Protocol: (§1) Carbon steel coupons were incubated in the presence of 0 and 2 mM indole, with and without an inoculum of DvH.
(§2) The metal loss of the carbon steel coupons was measured. FIG. 1 is a bar graph comparing corrosion as measured in coupon weight loss under the compound (indole) and SRB (DvH) tested.
(§3) Steel coupons were incubated in cultures of DvH for three days with and without indole and then the coupons were measured to determine the amount of metal loss due to corrosion. […] The error bars represent the standard error of the mean from 2 replicates.
The wild-type D. vulgaris Hildenborough (DvH) was obtained from Judy Wall at the University of Missouri and Adam Deutchbauer at the Lawrence Berkeley National Laboratory. Freezer stocks of DvH containing 10% glycerol were used to inoculate overnight cultures. The growth media (L30S30B2) contained 30 mM lactate, 30 mM sulfate, 8 mM MgCl2, 20 mM NH4Cl, 2.2 mM phosphate buffer, 0.6 mM CaCl2, 24 mM NaCO3, 0.02% resazurin, 0.06 mM FeCl2, trace elements and Thauer's vitamins (Lee et al., “Indole as an intercellular signal in microbial communities,” 2010, pp. 426-444) with pH adjusted to 7.2. Media was bubbled with 15% CO2 balance N2 and sodium dithionite was added immediately before inoculation to a final concentration of […]. Media containing 0-4 mM indole was made by anaerobically mixing varied volumes of L30S30B2 and L30S30B2 supplemented with 4 mM indole (Sigma-Aldrich, 13408).
(§4) Rectangular X52 carbon steel coupons were polished on 600 grit sand paper and weighed prior to the experiment. 60 ml of L30S30B2 media containing 0-2 mM indole was anaerobically transferred into each autoclaved serum bottle with 1 coupon hung on plastic fishing wire. 1 ml of a DvH overnight culture was inoculated into each bottle and incubated at 30° C. with gentle shaking for 3 days. After the incubation the coupons were descaled with Clarke's solution (tin choloride and antimony oxide in concentrated hydrochloric acid), rinsed with water, dried under nitrogen gas, and weighed again. The metal weight loss after exposure to DvH was then calculated.

[2] = test system: Desulfovibrio vulgaris Hildenborough (DvH); experiment: DvH metabolism by ion chromatography (lactate, sulfate, acetate); format: cell-based; conditions: 0.5-2 mM indole, FIG. 2B, 2 replicates
Protocol: as §3
The wild-type D. vulgaris Hildenborough (DvH) was obtained from Judy Wall at the University of Missouri and Adam Deutchbauer at the Lawrence Berkeley National Laboratory. Freezer stocks of DvH containing 10% glycerol were used to inoculate overnight cultures. The growth media (L30S30B2) contained 30 mM lactate, 30 mM sulfate, 8 mM MgCl2, 20 mM NH4Cl, 2.2 mM phosphate buffer, 0.6 mM CaCl2, 24 mM NaCO3, 0.02% resazurin, 0.06 mM FeCl2, trace elements and Thauer's vitamins (Lee et al., “Indole as an intercellular signal in microbial communities,” 2010, pp. 426-444) with pH adjusted to 7.2. […]
Ion Chromatography (IC)—One milliliter of cultures were extracted at the beginning and the end of the experiment, centrifuged at 14000 rpm for 2 min, filtered through 0.2 μm cellulose acetate filters, and kept at −20° C. until further IC analysis. Anions of lactate, sulfate, and acetate were quantified using suppressed conductivity on a Dionex ICS-5000 Reagent-Free HPIC System with a Dionex IonPac AS 11-HC column (0.4 mm×250 mm, Thermo Fisher, Massachusetts, USA). […]

[3] = Carbon steel coupon weight loss in a sterile environment without DvH inoculation; conditions: 2 mM indole, carbon steel coupons, FIG. 1
Protocol: as §1, §2, §4

## c1ccc2[nH]ccc2c1 [indole]
[1]; 2 mM indole, carbon steel coupons, in the presence of DvH (MIC), FIG. 1
  reduction of corrosion (coupon weight loss) compared to the no indole treatment: 2 fold
[1]; 0.5-2 mM indole, steel coupons in DvH cultures, three days, FIG. 2A
  metal loss of coupons incubated in the absence of indole relative to coupons in the presence of indole: ~2 fold
[1]; 0.5 to 2 mM indole, DvH cultures, three days
  corrosion of metal coupons: little to no corrosion
[2]
  metabolism of DvH (consumption of lactate and sulfate, production of acetate): not significantly affected
[3]
  reduction in coupon weight loss in sterile environment: not replicated
